This is an account of results in patent US10106504B2, “Pyridin-3-yl acetic acid derivatives as inhibitors of human immunodeficiency virus replication” (priority 2015, dated 2018).

This assay deals with NL-RLuc virus. Briefly: Inhibition of HIV replication (NL-RLuc virus, luciferase readout in MT-2 cells). Conditions: Human immunodeficiency virus 1, MT2, 120 h. It counts as cell-based. The text has this: Inhibition of HIV Replication:
A recombinant NL-RLuc proviral clone was constructed in which a section of the nef gene from NL4-3 was replaced with the Renilla Luciferase gene. This virus is fully infectious and can undergo multiple cycles of replication in cell culture. In addition, the luciferous reporter provides a simple and easy method for quantitating the extent of virus growth and consequently, the antiviral activity of test compounds. The plasmid pNLRLuc contains the proviral NL-Rluc DNA cloned into pUC18 at the PvuII site. The NL-RLuc virus was prepared by transfection of 293T cells with the plasmid pNLRLuc. Transfections were performed using the LipofectAMINE PLUS kit from Invitrogen (Carlsbad, Calif.) according to the manufacturer and the virus generated was titered in MT-2 cells. For susceptibility analyses, the titrated virus was used to infect MT-2 cells in the presence of compound, and after 5 days of incubation, cells were processed and quantitated for virus growth by the amount of expressed luciferase. Assay media was RPMI 1640 supplemented with 10% heat inactivated fetal bovine serum (FBS), 100 units/ml penicillin G/100 units/ml streptomycin, 10 mM HEPES buffer pH 7.55 and 2 mM L-glutamine. The results from at least 2 experiments were used to calculate the EC50 values. Luciferase was quantitated using the Dual Luciferase kit from Promega (Madison, Wis.). Susceptibility of viruses to compounds was determined by incubation in the presence of serial dilutions of the compound. The 50% effective concentration (EC50) was calculated by using the exponential form of the median effect equation where (Fa)=1/[1+(ED50/drug conc.)^m] (Johnson V A, Byington R T. Infectivity Assay. In Techniques in HIV Research. ed. Aldovini A, Walker BD. 71-76. New York: Stockton Press. 1990). Activity equal to A refers to a compound having an EC50<100 nM, while B and C denote compounds having an EC50 between 100 nM and 1 uM (B) or >1 uM (C).

Where two headings read alike, the source gives them in different places.

On to `Cc1nc(C)c([C@H](OC(C)(C)C)C(=O)O)c(-c2ccc3c(c2)C(F)(F)CCO3)c1-c1ccc(OCCc2ccc(F)cc2)cc1` [Example 36, (S)-2-(tert-Butoxy)-2-(4-(4,4-difluorochroman-6-yl)-5-(4-(4-fluorophenethoxy)phenyl)-2,6-dimethylpyridin-3-yl)acetic Acid], for which, for the setting “read-out: Activity”, the EC50 was less than 0.1 µM. On the same count and under the same terms, then `Cc1ccc(-c2c(-c3ccc(OCc4ccc(F)cc4)cc3)c(C)nc(C)c2[C@H](OC(C)(C)C)C(=O)O)cc1` [Example 5, (S)-2-(tert-Butoxy)-2-(5-(4-((4-fluorobenzyl)oxy)phenyl)-2,6-dimethyl-4-(p-tolyl)pyridin-3-yl)acetic Acid], with 0.1 to 1 µM. Still for that read-out and setting: for `Cc1cccc(CN2CCc3cc(-c4c(C)nc(C)c([C@H](OC(C)(C)C)C(=O)O)c4-c4ccc5c(c4)CCCO5)ccc3C2)c1F` [Example 26, (S)-2-(tert-Butoxy)-2-(4-(chroman-6-yl)-5-(2-(2-fluoro-3-methylbenzyl)-1,2,3,4-tetrahydroisoquinolin-6-yl)-2,6-dimethylpyridin-3-yl)acetic Acid] the value was less than 0.1 µM. In the case of `COc1ccc(COc2ccc(-c3c(C)nc(C)c([C@H](OC(C)(C)C)C(=O)O)c3-c3ccc(Cl)cc3)cc2)cc1` [Example 2, (S)-2-(tert-Butoxy)-2-(4-(4-chlorophenyl)-5-(4-((4-methoxybenzyl)oxy)phenyl)-2,6-dimethylpyridin-3-yl)acetic Acid], the EC50 is less than 0.1 µM (read-out: Activity) and 0.073 µM (read-out: EC50 μM). For `Cc1nc(C)c([C@H](OC(C)(C)C)C(=O)O)c(-c2ccc3c(c2)CCCO3)c1-c1ccc(OCCc2ccc(F)cc2)cc1` [Example 9, (S)-2-(tert-Butoxy)-2-(4-(chroman-6-yl)-5-(4-(4-fluorophenethoxy)phenyl)-2,6-dimethylpyridin-3-yl)acetic Acid], the EC50 (read-out: Activity) is less than 0.1 µM. In the case of `Cc1ccc(-c2c(-c3ccc4c(c3)CCN(Cc3c(C)cccc3F)C4)c(C)nc(C)c2[C@H](OC(C)(C)C)C(=O)O)cc1` [Example 41, (S)-2-(tert-Butoxy)-2-(5-(2-(2-fluoro-6-methylbenzyl)-1,2,3,4-tetrahydroisoquinolin-6-yl)-2,6-dimethyl-4-(p-tolyl)pyridin-3-yl)acetic Acid], the EC50 (read-out: Activity) was less than 0.1 µM. `Cc1nc(C)c([C@H](OC(C)(C)C)C(=O)O)c(-c2ccc3c(c2)CCCO3)c1-c1ccc2c(c1)CCN(C)C2` [Example 22, (S)-2-(tert-Butoxy)-2-(4-(chroman-6-yl)-2,6-dimethyl-5-(2-methyl-1,2,3,4-tetrahydroisoquinolin-6-yl)pyridin-3-yl)acetic acid]: the EC50 by setting is: (read-out: Activity) 0.1 to 1 µM; (read-out: EC50 μM) 0.628 µM.

As for `COc1ccc(COc2ccc(-c3c(C)nc(C)c([C@H](OC(C)(C)C)C(=O)O)c3-c3ccc(C)cc3)cc2)cc1` [Example 3, (S)-2-(tert-Butoxy)-2-(5-(4-((4-methoxybenzyl)oxy)phenyl)-2,6-dimethyl-4-(p-tolyl)pyridin-3-yl)acetic Acid], the EC50 is 0.1 to 1 µM (read-out: Activity) and 0.196 µM (read-out: EC50 μM). The like results for `Cc1nc(C)c([C@H](OC(C)(C)C)C(=O)O)c(-c2ccc3c(c2)CCCO3)c1-c1ccc2c(c1)CCN(c1ncnc3c1cnn3C)C2` [Example 54, (S)-2-(tert-Butoxy)-2-(4-(chroman-6-yl)-2,6-dimethyl-5-(2-(1-methyl-1H-pyrazolo[3,4-d]pyrimidin-4-yl)-1,2,3,4-tetrahydroisoquinolin-6-yl)pyridin-3-yl)acetic Acid] were, in that order, less than 0.1 µM and 0.008 µM. Turning to `Cc1cc(N2CCc3cc(-c4c(C)nc(C)c([C@H](OC(C)(C)C)C(=O)O)c4-c4ccc5c(c4)CCCO5)ccc3C2)nc(C)n1` [Example 58, (S)-2-(tert-Butoxy)-2-(4-(chroman-6-yl)-5-(2-(2,6-dimethylpyrimidin-4-yl)-1,2,3,4-tetrahydroisoquinolin-6-yl)-2,6-dimethylpyridin-3-yl)acetic Acid], the EC50 (read-out: Activity) was less than 0.1 µM. Same read-out and setting: then `Cc1nc(C)c([C@H](OC(C)(C)C)C(=O)O)c(-c2ccc3c(c2)CCCO3)c1-c1ccc2c(c1)CCN(Cc1cccc(F)c1)C2` [Example 24, (S)-2-(tert-Butoxy)-2-(4-(chroman-6-yl)-5-(2-(3-fluorobenzyl)-1,2,3,4-tetrahydroisoquinolin-6-yl)-2,6-dimethylpyridin-3-yl)acetic Acid], with less than 0.1 µM. Take `Cc1cccc(Cl)c1CN1CCc2cc(-c3c(C)nc(C)c([C@H](OC(C)(C)C)C(=O)O)c3-c3cc(F)c4c(c3)CCCO4)ccc2C1` [Example 51, (S)-2-(tert-Butoxy)-2-(5-(2-(2-chloro-6-methylbenzyl)-1,2,3,4-tetrahydroisoquinolin-6-yl)-4-(8-fluorochroman-6-yl)-2,6-dimethylpyridin-3-yl)acetic Acid]: under “read-out: Activity”, the EC50 is less than 0.1 µM. Same read-out and setting: then `COc1ccc(COc2ccc(-c3c(C)nc(C)c([C@H](OC(C)(C)C)C(=O)O)c3-c3ccc(OCc4ccc(OC)cc4)cc3)cc2)cc1` [Example 4, (S)-2-(4,5-Bis(4-((4-methoxybenzyl)oxy)phenyl)-2,6-dimethylpyridin-3-yl)-2-(tert-butoxy)acetic Acid], with 0.1 to 1 µM. Same read-out and setting: for `Cc1nc(CO)c(-c2ccc(OCCc3ccc(F)cc3)cc2)c(-c2ccc3c(c2)CCCO3)c1[C@H](OC(C)(C)C)C(=O)O` [Example 14, (S)-2-(tert-Butoxy)-2-(4-(chroman-6-yl)-5-(4-(4-fluorophenethoxy)phenyl)-6-(hydroxymethyl)-2-methylpyridin-3-yl)acetic Acid] the value was less than 0.1 µM; for `Cc1nc(COC2CCOCC2)c(-c2ccc(OCCc3ccc(F)cc3)cc2)c(-c2ccc3c(c2)CCCO3)c1[C@H](OC(C)(C)C)C(=O)O` [Example 15, (S)-2-(tert-Butoxy)-2-(4-(chroman-6-yl)-5-(4-(4-fluorophenethoxy)phenyl)-2-methyl-6-(((tetrahydro-2H-pyran-4-yl)oxy)methyl)pyridin-3-yl)acetic Acid], less than 0.1 µM; for `Cc1ccccc1CN1CCc2cc(-c3c(C)nc(C)c([C@H](OC(C)(C)C)C(=O)O)c3-c3cc(F)c4c(c3C)CCCO4)ccc2C1` [Example 40, (2S)-2-(tert-Butoxy)-2-(4-(8-fluoro-5-methylchroman-6-yl)-2,6-dimethyl-5-(2-(2-methylbenzyl)-1,2,3,4-tetrahydroisoquinolin-6-yl)pyridin-3-yl)acetic Acid], less than 0.1 µM. The same measure, in the same setting: then `Cc1nc(C)c([C@H](OC(C)(C)C)C(=O)O)c(-c2cc(F)c3c(c2C)CCCO3)c1-c1ccc2c(c1)CCN(Cc1ccccc1F)C2` [Example 38, (2S)-2-(tert-Butoxy)-2-(4-(8-fluoro-5-methylchroman-6-yl)-5-(2-(2-fluorobenzyl)-1,2,3,4-tetrahydroisoquinolin-6-yl)-2,6-dimethylpyridin-3-yl)acetic Acid], with less than 0.1 µM; and `Cc1cccc(Cl)c1CN1CCc2cc(-c3c(N)nc(C)c([C@H](OC(C)(C)C)C(=O)O)c3-c3ccc4c(c3)CCCO4)ccc2C1` [Example 63, (S)-2-(6-Amino-5-(2-(2-chloro-6-methylbenzyl)-1,2,3,4-tetrahydroisoquinolin-6-yl)-4-(chroman-6-yl)-2-methylpyridin-3-yl)-2-(tert-butoxy)acetic Acid], with less than 0.1 µM. With `Cc1cc(N2CCc3cc(-c4c(CCCC5CCOCC5)nc(C)c([C@H](OC(C)(C)C)C(=O)O)c4-c4ccc5c(c4)CCCO5)ccc3C2)ncn1` [Example 67, (S)-2-(tert-Butoxy)-2-(4-(chroman-6-yl)-2-methyl-5-(2-(6-methylpyrimidin-4-yl)-1,2,3,4-tetrahydroisoquinolin-6-yl)-6-(3-(tetrahydro-2H-pyran-4-yl)propyl)pyridin-3-yl)acetic Acid], the EC50 (read-out: Activity) is less than 0.1 µM.

As to `Cc1cccc(F)c1CN1CCc2cc(-c3c(C)nc(C)c([C@H](OC(C)(C)C)C(=O)O)c3-c3cc(F)c4c(c3)CCCO4)ccc2C1` [Example 49, (S)-2-(tert-Butoxy)-2-(5-(2-(2-fluoro-6-methylbenzyl)-1,2,3,4-tetrahydroisoquinolin-6-yl)-4-(8-fluorochroman-6-yl)-2,6-dimethylpyridin-3-yl)acetic Acid], the EC50 (read-out: Activity) is less than 0.1 µM. With `COc1nccc(N2CCc3cc(-c4c(N)nc(C)c([C@H](OC(C)(C)C)C(=O)O)c4-c4ccc5c(c4)CCCO5)ccc3C2)n1` [Example 64, (S)-2-(6-Amino-4-(chroman-6-yl)-5-(2-(2-methoxypyrimidin-4-yl)-1,2,3,4-tetrahydroisoquinolin-6-yl)-2-methylpyridin-3-yl)-2-(tert-butoxy)acetic Acid], the EC50 (read-out: Activity) was less than 0.1 µM. Same read-out and setting: then `CCOCCOCCOCc1nc(C)c([C@H](OC(C)(C)C)C(=O)O)c(-c2ccc3c(c2)CCCO3)c1-c1ccc(OCCc2ccc(F)cc2)cc1` [Example 18, (S)-2-(tert-Butoxy)-2-(4-(chroman-6-yl)-6-((2-(2-ethoxyethoxy)ethoxy)methyl)-5-(4-(4-fluorophenethoxy)phenyl)-2-methylpyridin-3-yl)acetic Acid], with less than 0.1 µM.
